The results in this text go back to patent US20080269267A1, “KINASE INHIBITORS USEFUL FOR THE TREATMENT OF MYLEOPROLIFIC DISEASES AND OTHER PROLIFERATIVE DISEASES” (Deciphera Pharmaceuticals, LLC, priority 2007, published 2008).

Counter-ions that a name gives are not always drawn.

The IC50 is the midpoint of a concentration-inhibition curve.

Assay [1] concerns the target T1, C-Met kinase (SEQ ID NO:10) (Homo sapiens, UniProt P08581).
T1 construct: purchased Invitrogen PV3143
The experiment in a line: C-Met kinase assay (pyruvate kinase/lactate dehydrogenase coupled). To be noted: 0.5 h preincubation at 22° C., ATP 100 μM; read-out: c-Met Enzyme Assay, biochemical IC50. Here is the method: C-Met Kinase (SEQ ID NO:10) Assay
Activity of C-Met kinase (SEQ ID NO:10) was determined by following the production of ADP from the kinase reaction through coupling with the pyruvate kinase/lactate dehydrogenase system (e.g., Schindler, et al. Science (2000) 289, 1938-1942). In this assay, the oxidation of NADH (thus the decrease at A340 nm) was continuously monitored spectrophometrically. The reaction mixture (100 μl) contained C-Met (c-Met residues; 956-1390, from Invitrogen, catalogue #PV3143, 6 nM), polyE4Y (1 mg/ml), MgCl2 (10 mM), pyruvate kinase (4 units), lactate dehydrogenase (0.7 units), phosphoenol pyruvate (1 mM), and NADH (0.28 mM) in 90 mM Tris buffer containing 0.25 mM DTT, 0.2% octyl-glucoside and 1% DMSO, pH 7.5. Test compounds were incubated with C-Met (SEQ ID NO:10) and other reaction reagents at 22° C. for 0.5 h before ATP (100 μM) was added to start the reaction. The absorption at 340 n=was monitored continuously for 2 hours at 30° C. on Polarstar Optima plate reader (BMG). The reaction rate was calculated using the 1.0 to 2.0 h time frame. Percent inhibition was obtained by comparison of reaction rate with that of a control (i.e. with no test compound). IC50 values were calculated from a series of percent inhibition values determined at a range of inhibitor concentrations using software routines as implemented in the GraphPad Prism software package.

The target in assay [2] is B-Raf(V600E) kinase (SEQ ID NO:11) (Homo sapiens, UniProt P15056, V600E). The assay is described as follows: B-Raf(V600E) kinase assay (pyruvate kinase/lactate dehydrogenase coupled, MEK1 substrate). To be noted: 1 h preincubation at 30° C., ATP 0.2 mM; read-out: B-Raf V600E Enzyme Assay, biochemical IC50. Here is the method: B-Raf(V600E) Kinase Assay
B-Raf(V600E) kinase (SEQ ID NO:11), sequence (P15056 with tags, fused parts or gaps V600E): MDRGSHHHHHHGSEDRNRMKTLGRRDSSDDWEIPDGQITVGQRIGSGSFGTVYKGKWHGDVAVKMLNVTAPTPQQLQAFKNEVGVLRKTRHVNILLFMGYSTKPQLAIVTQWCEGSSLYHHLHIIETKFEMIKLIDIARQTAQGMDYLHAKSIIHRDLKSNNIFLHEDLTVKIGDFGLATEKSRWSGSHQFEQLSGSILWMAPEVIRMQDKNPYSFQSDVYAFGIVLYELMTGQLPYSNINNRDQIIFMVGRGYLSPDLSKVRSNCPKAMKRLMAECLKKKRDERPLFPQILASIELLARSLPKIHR
The activity of B-Raf(V600E) kinase (SEQ ID NO:11) was determined by following the formation of ADP from the reaction through coupling with the pyruvate kinase/lactate dehydrogenase system (e.g., Schindler, et al. Science (2000) 289, 1938-1942). In this assay, the oxidation of NADH (thus the decrease at A340nm) was continuously monitored spectrophotometrically. The reaction mixture (100 μl) contained B-Raf(V600E) kinase (0.34 nM nominal concentration, SEQ ID NO:11), unphosphorylated, full-length MEK1 (42 nM, SEQ ID NO:12), MgCl2 (13 mM), pyruvate kinase (3.5 units), lactate dehydrogenase (5.5 units), phosphoenolpyruvate (1 mM), and NADH (0.28 mM), in 60 mM Tris buffer, containing 0.13% octyl-glucoside and 3.5% DMSO concentration at pH 7.5. The test compounds were incubated with the reaction mixture at 30° C. for 1 h. The reaction was initiated by adding ATP (0.2 mM, final concentration). The absorption at 340 nm was continuously monitored for 3 h at 30° C. on a Polarstar Optima plate reader (BMG). The reaction rate was calculated using the 0.5 h to 1.5 h time frame. Percent inhibition was obtained by comparison of reaction rate with that of a control (i.e. with no test compound). IC50 values were calculated from a series of percent inhibition values determined at a range of inhibitor concentrations using software routines as implemented in the GraphPad Prism software package.

Assay [3] concerns the target T2, BaF3 cells transfected with wild type p210 BCR-Abl (Homo sapiens, UniProt P00519).
T2 construct: fused on or other part: P11274 (Breakpoint cluster region protein)
The assay is described as follows: Ba/F3 p210 whole cell proliferation assay (Cell Titer Blue, 72 hours). Format: cell-based. To be noted: 72 hours incubation; read-out: Ba/F3 p210 whole cell proliferation assay, antiproliferation IC50. Here is the method: BaF3 cells (parental or transfected with the following: wild type p210 BCR-Abl and T315I p210 BCR-Abl was obtained from Professor Richard Van Etten (New England Medical Center, Boston, Mass.). Briefly, cells were grown in RPMI 1640 supplemented with 10% characterized fetal bovine serum (HyClone, Logan, Utah) at 37 degrees Celsius, 5% CO2, 95% humidity. Cells were allowed to expand until reaching 80% saturation at which point they were subcultured or harvested for assay use.
A serial dilution of test compound was dispensed into a 96 well black clear bottom plate (Corning, Corning, N.Y.). For each cell line, three thousand cells were added per well in complete growth medium. Plates were incubated for 72 hours at 37 degrees Celsius, 5% CO2, 95% humidity. At the end of the incubation period Cell Titer Blue (Promega, Madison, Wis.) was added to each well and an additional 4.5 hour incubation at 37 degrees Celsius, 5% CO2, 95% humidity was performed. Plates were then read on a BMG Fluostar Optima (BMG, Durham, N.C.) using an excitation of 544 nm and an emission of 612 nm. Data was analyzed using Prism software (Graphpad, San Diego, Calif.) to calculate IC50's.
(In general: Alamar Blue is a resazurin reagent that responds to reducing activity.)

The target of assay [4] is T3, c-Kit kinase (SEQ ID NO:9) (Homo sapiens, UniProt P10721).
T3 construct: purchased ProQinase
T3 sequence (P10721 with tags, fused parts or gaps): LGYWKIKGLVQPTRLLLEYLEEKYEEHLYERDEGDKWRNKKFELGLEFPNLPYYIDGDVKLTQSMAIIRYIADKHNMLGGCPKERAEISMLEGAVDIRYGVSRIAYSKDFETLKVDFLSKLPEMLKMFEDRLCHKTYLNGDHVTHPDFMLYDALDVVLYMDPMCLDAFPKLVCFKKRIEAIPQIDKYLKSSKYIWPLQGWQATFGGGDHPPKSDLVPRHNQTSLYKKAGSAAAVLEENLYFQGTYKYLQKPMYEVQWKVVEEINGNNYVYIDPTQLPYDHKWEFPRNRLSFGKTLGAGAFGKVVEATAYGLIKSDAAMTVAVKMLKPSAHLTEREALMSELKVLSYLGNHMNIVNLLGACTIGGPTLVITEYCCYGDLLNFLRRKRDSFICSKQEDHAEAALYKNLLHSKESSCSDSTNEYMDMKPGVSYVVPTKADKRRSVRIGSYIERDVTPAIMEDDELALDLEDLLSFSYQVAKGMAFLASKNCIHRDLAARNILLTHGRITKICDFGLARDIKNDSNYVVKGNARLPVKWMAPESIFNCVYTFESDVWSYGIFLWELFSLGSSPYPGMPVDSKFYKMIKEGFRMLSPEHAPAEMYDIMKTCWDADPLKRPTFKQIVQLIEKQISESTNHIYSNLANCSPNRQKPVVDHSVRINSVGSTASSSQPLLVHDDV
The assay is described as follows: c-Kit kinase assay (pyruvate kinase/lactate dehydrogenase coupled). To be noted: <2 min preincubation at 22° C., ATP 200 μM; read-out: c-Kit Enzyme Assay, biochemical IC50. Here is the method:
C-Kit Kinase (SEQ ID NO:9) Assay
Activity of c-Kit kinase (SEQ ID NO:9) was determined by following the production of ADP from the kinase reaction through coupling with the pyruvate kinase/lactate dehydrogenase system (e.g., Schindler, et al. Science (2000) 289, 1938-1942). In this assay, the oxidation of NADH (thus the decrease at A340 nm) was continuously monitored spectrophometrically. The reaction mixture ([…]) contained c-Kit (cKIT residues T544-V976, from ProQinase, 5.4 nM), polyE4Y (1 mg/ml), MgCl2 (10 mM), pyruvate kinase (4 units), lactate dehydrogenase (0.7 units), phosphoenol pyruvate (1 mM), and NADH (0.28 mM) in 90 mM Tris buffer containing 0.2% octyl-glucoside and 1% DMSO, pH 7.5. Test compounds were incubated with […] (SEQ ID NO:9) and other reaction reagents at 22° C. for <2 min before ATP (200 μM) was added to start the reaction. The absorption at 340 nm was monitored continuously for 0.5 hours at 30° C. on Polarstar Optima plate reader (BMG). The reaction rate was calculated using the 0 to 0.5 h time frame. Percent inhibition was obtained by comparison of reaction rate with that of a control (i.e. with no test compound). IC50 values were calculated from a series of percent inhibition values determined at a range of inhibitor concentrations using software routines as implemented in the GraphPad Prism software package.

T2 sequence (P00519 whole entry, change not shown, the tested form may be a part): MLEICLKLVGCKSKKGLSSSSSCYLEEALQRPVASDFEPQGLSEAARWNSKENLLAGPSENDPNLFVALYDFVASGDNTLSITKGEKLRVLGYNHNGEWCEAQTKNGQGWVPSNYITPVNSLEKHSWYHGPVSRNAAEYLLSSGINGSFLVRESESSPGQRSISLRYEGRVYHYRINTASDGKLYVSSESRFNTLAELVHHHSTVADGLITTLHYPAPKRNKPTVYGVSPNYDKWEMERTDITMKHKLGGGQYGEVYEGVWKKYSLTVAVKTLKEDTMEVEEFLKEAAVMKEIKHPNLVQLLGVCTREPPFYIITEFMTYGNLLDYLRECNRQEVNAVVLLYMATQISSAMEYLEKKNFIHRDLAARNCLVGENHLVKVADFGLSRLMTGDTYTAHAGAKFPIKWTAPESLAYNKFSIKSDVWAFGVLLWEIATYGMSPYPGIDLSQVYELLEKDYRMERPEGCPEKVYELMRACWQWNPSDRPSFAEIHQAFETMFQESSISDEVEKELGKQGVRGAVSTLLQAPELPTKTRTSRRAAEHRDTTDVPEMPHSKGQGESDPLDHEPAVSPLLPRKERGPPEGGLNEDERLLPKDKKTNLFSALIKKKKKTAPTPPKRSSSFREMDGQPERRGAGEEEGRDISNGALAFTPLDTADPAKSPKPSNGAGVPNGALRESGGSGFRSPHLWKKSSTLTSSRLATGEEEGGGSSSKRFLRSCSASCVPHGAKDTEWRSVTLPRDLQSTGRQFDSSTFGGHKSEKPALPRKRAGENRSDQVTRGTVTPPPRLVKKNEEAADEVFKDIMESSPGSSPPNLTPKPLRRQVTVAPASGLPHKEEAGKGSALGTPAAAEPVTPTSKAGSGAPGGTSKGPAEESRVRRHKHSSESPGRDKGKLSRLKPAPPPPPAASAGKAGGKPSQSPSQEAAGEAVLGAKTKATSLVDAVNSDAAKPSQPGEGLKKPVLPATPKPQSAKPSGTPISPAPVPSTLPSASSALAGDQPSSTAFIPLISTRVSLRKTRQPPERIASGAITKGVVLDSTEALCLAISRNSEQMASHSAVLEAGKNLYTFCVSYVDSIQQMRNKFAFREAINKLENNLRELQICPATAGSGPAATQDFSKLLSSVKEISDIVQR
T1 sequence (P08581 with tags, fused parts or gaps): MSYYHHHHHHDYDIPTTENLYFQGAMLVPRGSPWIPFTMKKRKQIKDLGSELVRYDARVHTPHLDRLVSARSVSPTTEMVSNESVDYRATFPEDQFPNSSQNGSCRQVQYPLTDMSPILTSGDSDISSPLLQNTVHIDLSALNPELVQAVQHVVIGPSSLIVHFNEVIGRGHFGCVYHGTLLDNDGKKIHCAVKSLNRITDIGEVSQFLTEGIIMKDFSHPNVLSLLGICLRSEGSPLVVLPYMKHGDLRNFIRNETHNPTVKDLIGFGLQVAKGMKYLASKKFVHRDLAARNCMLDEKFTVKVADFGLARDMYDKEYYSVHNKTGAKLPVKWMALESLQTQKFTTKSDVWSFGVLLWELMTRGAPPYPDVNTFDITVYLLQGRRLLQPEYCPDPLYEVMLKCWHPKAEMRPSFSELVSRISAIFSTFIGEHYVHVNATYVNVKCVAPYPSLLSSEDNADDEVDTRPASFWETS

Turning to “1-(2-tert-butyl-4-(pyridin-3-yl)pyrimidin-5-yl)-3-(2-fluoro-5-(8-methyl-2-(methylamino)-7-oxo-7,8-dihydropyrido[2,3-d]pyrimidin-6-yl)phenyl)urea [Example 10]”, the half-inhibitory concentration (IC50) in assay [1] is under 10000 nM; in assay [2], under 1000 nM. Further, the GI50 in assay [3] is under 100 nM.

Consider `CC(C)c1cc(NC(=O)Nc2ccc(Oc3ccnc(-c4cnn(C)c4)c3)cc2F)n(-c2cccc(C#N)c2)n1` [Example 2, 1-(1-(3-cyanophenyl)-3-isopropyl-1H-pyrazol-5-yl)-3-(2-fluoro-4-(2-(1-methyl-1H-pyrazol-4-yl)pyridin-4-yloxy)phenyl)urea], for which the half-maximal inhibitory concentration (IC50) in assay [4], in assay [1] and in assay [2] was under 100 nM in each case. In assay [3], the GI50 is under 100 nM.

Consider `CC(C)(C)c1cc(NC(=O)Nc2ccc(Oc3ccnc(-c4cn[nH]c4)c3)cc2F)n(-c2cccc(C#N)c2)n1` [Example 3, 1-(4-(2-(1H-pyrazol-4-yl)pyridin-4-yloxy)-2-fluorophenyl)-3-(3-tert-butyl-1-(3-cyanophenyl-1H-pyrazol-5-yl)urea hydrochloride], for which the IC50 in assay [1] and in assay [2] was under 100 nM throughout. In assay [3], the GI50 was under 100 nM.

For `Cn1cc(-c2cc(Oc3ccc(NC(=O)Nc4cc(C(C)(C)C)nn4-c4cccc(C#N)c4)c(F)c3)ccn2)cn1` [Example 4, 1-(3-tert-butyl-1-(3-cyanophenyl)-1H-pyrazol-5-yl)-3-(2-fluoro-4-(2-(1-methyl-1H-pyrazol-4-yl)pyridin-4-yloxy)phenyl)urea hydrochloride], the IC50 in assay [1] and in assay [2] was under 100 nM in each case. For the same compound, in assay [3], the GI50 was under 100 nM.

Take `CC(C)c1cc(NC(=O)Nc2ccc(Oc3ccnc(-c4cnn(C)c4)c3)cc2F)n(-c2ccc(F)c(C#N)c2)n1` [Example 5, 1-(1-(3-cyano-4-fluorophenyl)-3-isopropyl-1H-pyrazol-5-yl)-3-(2-fluoro-4-(2-(1-methyl-1H-pyrazol-4-yl)pyridin-4-yloxy)phenyl)urea]: the results for the concentration for half-maximal inhibition (IC50) in assay [4], in assay [1] and in assay [2] were under 100 nM, under 1000 nM and under 100 nM, respectively. The GI50 in assay [3] is under 100 nM.

On to `Cn1cc(-c2cc(Oc3ccc(NC(=O)Nc4cc(C(C)(C)C)nn4-c4ccc(C#N)cc4)c(F)c3)ccn2)cn1` [Example 6, 1-(3-tert-butyl-1-(4-cyanophenyl)-1H-pyrazol-5-yl)-3-(2-fluoro-4-(2-(1-methyl-1H-pyrazol-4-yl)pyridin-4-yloxy)phenyl)urea], for which the IC50 in assay [1] and in assay [2] was under 100 nM each time. Also, the GI50 in assay [3] was under 100 nM.

Turning to `Cn1cc(-c2cc(Oc3ccc(NC(=O)Nc4cc(C(C)(C)C)nn4-c4cccc(CO)c4)c(F)c3)ccn2)cn1` [Example 7, 1-(3-tert-butyl-1-(3-(hydroxymethyl)phenyl)-1H-pyrazol-5-yl)-3-(2-fluoro-4-(2-(1-methyl-1H-pyrazol-4-yl)pyridin-4-yloxy)phenyl)urea p-toluenesulfonic acid], the IC50 in assay [1] and in assay [2] was under 100 nM throughout. The GI50 in assay [3] is under 100 nM.

With `Cn1cc(-c2cc(Oc3ccc(NC(=O)Nc4cc(C(C)(C)C)nn4-c4ccc(CO)cc4)c(F)c3)ccn2)cn1` [Example 8, 1-(3-tert-butyl-1-(4-(hydroxymethyl)phenyl)-1H-pyrazol-5-yl)-3-(2-fluoro-4-(2-(1-methyl-1H-pyrazol-4-yl)pyridin-4-yloxy)phenyl)urea], the half-maximal inhibitory concentration (IC50) in assay [1] and in assay [2] was under 100 nM each time. Also, in assay [3], the GI50 was under 100 nM.

In the case of `Cc1ccc(-n2nc(C(C)C)cc2NC(=O)Nc2ccc(Oc3ccnc(-c4cnn(C)c4)c3)cc2F)cc1C#N` [Example 11, 1-(1-(3-cyano-4-methylphenyl)-3-isopropyl-1H-pyrazol-5-yl)-3-(2-fluoro-4-(2-(1-methyl-1H-pyrazol-4-yl)pyridin-4-yloxy)phenyl)urea], the half-inhibitory concentration (IC50) in assay [1] and in assay [2] was under 100 nM each time. Also, the GI50 in assay [3] was under 100 nM.

For the compound `Cc1ncc(NC(=O)Nc2ccc(Oc3ccnc(-c4cnn(C)c4)c3)cc2F)c(-c2ccccc2)n1` [Example 14, 1-(2-fluoro-4-(2-(1-methyl-1H-pyrazol-4-yl)pyridin-4-yloxy)phenyl)-3-(2-methyl-4-phenylpyrimidin-5-yl)urea], the concentration for half-maximal inhibition (IC50) was under 10000 nM in assay [1] and under 100000 nM in assay [2]. Besides, the GI50 in assay [3] was under 100 nM.

With `CC(C)c1cc(NC(=O)Nc2ccc(Oc3ccnc(-c4cnn(C)c4)c3)c(F)c2)n(-c2cccc(C#N)c2)n1` [Example 16, 1-(1-(3-cyanophenyl)-3-isopropyl-1H-pyrazol-5-yl)-3-(3-fluoro-4-(2-(1-methyl-1H-pyrazol-4-yl)pyridin-4-yloxy)phenyl)urea], the IC50 in assay [1] and in assay [2] was under 100 nM in each case. The GI50 in assay [3] was under 100 nM.

As to `CC(C)c1cc(NC(=O)Nc2ccc(Oc3ccnc(-c4cnn(C)c4)c3)cc2F)n(-c2cccc(F)c2)n1` [Example 24, 1-(2-fluoro-4-(2-(1-methyl-1H-pyrazol-4-yl)pyridin-4-yloxy)phenyl)-3-(1-(3-fluorophenyl)-3-isopropyl-1H-pyrazol-5-yl)urea], the IC50 in assay [1] and in assay [2] was under 100 nM in each case. In addition, the GI50 in assay [3] is under 100 nM.

For `Cn1cc(-c2cc(Oc3ccc(NC(=O)Nc4cc(-c5ccccc5F)nn4C)c(F)c3F)ccn2)cn1` [Example 25, 1-(2,3-difluoro-4-(2-(1-methyl-1H-pyrazol-4-yl)pyridin-4-yloxy)phenyl)-3-(3-(2-fluorophenyl)-1-methyl-1H-pyrazol-5-yl)urea], the IC50 in assay [1] and in assay [2] was under 1000 nM throughout. The GI50 in assay [3] was under 1000 nM.
